These results are taken from patent US20250235543A1, “MODIFIED PROTEINS AND PROTEIN DEGRADERS” (Cullgen (Shanghai), Inc., priority 2021, published 2025).

For one test, the target named is T1, CDK4 (Homo sapiens, UniProt P11802).
T1 construct: endogenous in cells; host or cells: Calu-1
The test can be described thus: CDK4 percentage degradation in Calu-1 cells (immunoblotting). Type of test: cell-based. Particulars: Calu-1 cells, 10 μM, 16 hours; read-out: CDK4 Degradation (10 μM). A digest of the protocol: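 Cultured cells were rinsed once in cold PBS and lysed in cold RIPA buffer containing protease and phosphatase inhibitors, with gentle agitation at 4° C. for 30 min. Lysates were centrifuged at 13,000 rpm for 10 min at 4° C., and protein was quantified by BCA. Samples were then separated by SDS-PAGE, detected with ECL, and the CDK4 bands quantified in Image Lab.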
(A western blot detects proteins with antibodies after separation by electrophoresis.)

The test system of the next test is cyclin D1. The test can be described thus: Cyclin D1 percentage degradation in Calu-1 cells (immunoblotting). It is filed as cell-based. Particulars: 10 μM, 16 hours. Summed up: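 Cells were rinsed once in cold PBS and lysed in cold RIPA buffer containing protease and phosphatase inhibitors, with gentle agitation at 4° C. for 30 min. Lysates were spun at 13,000 rpm for 10 min at 4° C., protein was measured by BCA, and samples were boiled in Laemmli buffer at 99° C. for 5 min before SDS-PAGE immunoblotting.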

T1 sequence (P11802 2-303 limits assumed): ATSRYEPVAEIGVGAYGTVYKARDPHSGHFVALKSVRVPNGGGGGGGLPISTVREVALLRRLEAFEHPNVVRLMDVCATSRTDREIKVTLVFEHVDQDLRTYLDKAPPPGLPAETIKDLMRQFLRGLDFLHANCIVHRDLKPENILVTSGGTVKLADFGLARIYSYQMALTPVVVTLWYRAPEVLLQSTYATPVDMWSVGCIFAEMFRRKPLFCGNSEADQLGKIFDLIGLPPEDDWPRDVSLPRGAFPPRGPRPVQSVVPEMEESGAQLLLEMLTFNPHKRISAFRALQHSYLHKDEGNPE
T1 sequence (P24385 whole entry partner): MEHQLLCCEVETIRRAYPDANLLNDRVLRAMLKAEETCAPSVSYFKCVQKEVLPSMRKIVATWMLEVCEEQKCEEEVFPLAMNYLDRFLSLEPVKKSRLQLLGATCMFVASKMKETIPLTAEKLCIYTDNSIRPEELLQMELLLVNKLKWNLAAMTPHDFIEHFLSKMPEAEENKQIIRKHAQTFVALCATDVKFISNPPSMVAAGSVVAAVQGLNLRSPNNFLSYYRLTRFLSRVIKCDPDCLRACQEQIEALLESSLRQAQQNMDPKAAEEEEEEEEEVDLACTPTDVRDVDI
T1 sequence (Q16531 2-1140 limits assumed, further chain): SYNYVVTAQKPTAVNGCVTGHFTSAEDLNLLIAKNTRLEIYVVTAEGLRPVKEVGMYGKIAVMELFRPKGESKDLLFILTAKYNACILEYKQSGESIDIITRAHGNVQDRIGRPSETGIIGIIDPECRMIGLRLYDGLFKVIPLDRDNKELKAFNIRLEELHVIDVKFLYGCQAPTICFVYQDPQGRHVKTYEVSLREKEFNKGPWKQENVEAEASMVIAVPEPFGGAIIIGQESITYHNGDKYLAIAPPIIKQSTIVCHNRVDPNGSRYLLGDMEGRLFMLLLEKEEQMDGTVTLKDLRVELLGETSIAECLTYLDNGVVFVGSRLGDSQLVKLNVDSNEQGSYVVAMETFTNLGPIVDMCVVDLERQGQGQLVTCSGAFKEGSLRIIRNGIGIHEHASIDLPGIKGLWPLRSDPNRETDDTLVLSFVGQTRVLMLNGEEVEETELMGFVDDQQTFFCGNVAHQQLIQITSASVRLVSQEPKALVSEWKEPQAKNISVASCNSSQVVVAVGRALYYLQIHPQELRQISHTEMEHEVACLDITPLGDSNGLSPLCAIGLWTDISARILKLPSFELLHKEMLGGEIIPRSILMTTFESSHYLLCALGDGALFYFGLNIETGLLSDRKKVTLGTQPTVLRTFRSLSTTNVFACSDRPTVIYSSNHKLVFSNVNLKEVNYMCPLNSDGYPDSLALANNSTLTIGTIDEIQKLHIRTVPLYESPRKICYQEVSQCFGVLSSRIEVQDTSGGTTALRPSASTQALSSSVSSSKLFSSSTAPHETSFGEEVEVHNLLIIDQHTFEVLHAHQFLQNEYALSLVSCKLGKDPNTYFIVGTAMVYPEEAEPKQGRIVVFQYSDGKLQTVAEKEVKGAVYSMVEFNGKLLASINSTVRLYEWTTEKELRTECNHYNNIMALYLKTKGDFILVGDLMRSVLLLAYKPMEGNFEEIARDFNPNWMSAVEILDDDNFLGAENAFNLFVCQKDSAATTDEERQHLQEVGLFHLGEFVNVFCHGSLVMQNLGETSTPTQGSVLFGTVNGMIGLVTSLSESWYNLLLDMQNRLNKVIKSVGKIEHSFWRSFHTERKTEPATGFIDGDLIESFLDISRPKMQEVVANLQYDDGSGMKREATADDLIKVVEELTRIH

For `Cc1nc(NC(=O)c2ccccc2NC(=O)CCCNC(=O)CN2CCN(Cc3ccc(Nc4ncc(F)c(-c5cc(F)c6nc(C)n(C(C)C)c6c5)n4)nc3)CC2)sc1C` [CPD-274, N-(4,5-Dimethylthiazol-2-yl)-2-(4-(2-(4-((6-((5-fluoro-4-(4-fluoro-1-isopropyl-2-methyl-1H-benzo[d]imidazol-6-yl)pyrimidin-2-yl)amino)pyridin-3-yl)methyl)piperazin-1-yl)acetamido)butanamido)benzamide], the inhibition at 10 µM at CDK4 is less than 30%. In the test with cyclin D1, the “CyclinD1 Degradation (10 μM)” value is “B (protein percentage degradation < 80%, and >= 50%)”.

In the case of `Cc1nc(NC(=O)c2ccccc2NC(=O)CCCCNC(=O)CN2CCN(Cc3ccc(Nc4ncc(F)c(-c5cc(F)c6nc(C)n(C(C)C)c6c5)n4)nc3)CC2)sc1C` [CPD-275, N-(4,5-Dimethylthiazol-2-yl)-2-(5-(2-(4-((6-((5-fluoro-4-(4-fluoro-1-isopropyl-2-methyl-1H-benzo[d]imidazol-6-yl)pyrimidin-2-yl)amino)pyridin-3-yl)methyl)piperazin-1-yl)acetamido)pentanamido)benzamide], the inhibition at 10 µM on CDK4 is less than 30%. Besides, the “CyclinD1 Degradation (10 μM)” value with cyclin D1 is “D (protein percentage degradation < 30%)”.

On to `Cc1nc(NC(=O)c2ccccc2NC(=O)CCCCCNC(=O)CN2CCN(Cc3ccc(Nc4ncc(F)c(-c5cc(F)c6nc(C)n(C(C)C)c6c5)n4)nc3)CC2)sc1C` [CPD-276, N-(4,5-Dimethylthiazol-2-yl)-2-(6-(2-(4-((6-((5-fluoro-4-(4-fluoro-1-isopropyl-2-methyl-1H-benzo[d]imidazol-6-yl)pyrimidin-2-yl)amino)pyridin-3-yl)methyl)piperazin-1-yl)acetamido)hexanamido)benzamide], for which, at CDK4, the inhibition at 10 µM was less than 30%. The “CyclinD1 Degradation (10 μM)” value in the test with cyclin D1 is on record as “D (protein percentage degradation < 30%)”.

For `Cc1nc(NC(=O)c2ccccc2NC(=O)CCCCCCNC(=O)CN2CCN(Cc3ccc(Nc4ncc(F)c(-c5cc(F)c6nc(C)n(C(C)C)c6c5)n4)nc3)CC2)sc1C` [CPD-277, N-(4,5-Dimethylthiazol-2-yl)-2-(7-(2-(4-((6-((5-fluoro-4-(4-fluoro-1-isopropyl-2-methyl-1H-benzo[d]imidazol-6-yl)pyrimidin-2-yl)amino)pyridin-3-yl)methyl)piperazin-1-yl)acetamido)heptanamido)benzamide], the inhibition at 10 µM on CDK4 is less than 30%. The “CyclinD1 Degradation (10 μM)” value in the test with cyclin D1 was “D (protein percentage degradation < 30%)”.

Regarding `Cc1nc(NC(=O)c2ccccc2NC(=O)CCCCCCCNC(=O)CN2CCN(Cc3ccc(Nc4ncc(F)c(-c5cc(F)c6nc(C)n(C(C)C)c6c5)n4)nc3)CC2)sc1C` [CPD-278, N-(4,5-Dimethylthiazol-2-yl)-2-(8-(2-(4-((6-((5-fluoro-4-(4-fluoro-1-isopropyl-2-methyl-1H-benzo[d]imidazol-6-yl)pyrimidin-2-yl)amino)pyridin-3-yl)methyl)piperazin-1-yl)acetamido)octanamido)benzamide], on CDK4, the inhibition at 10 µM is less than 30%. For the same compound, in the test on cyclin D1, the “CyclinD1 Degradation (10 μM)” value was “D (protein percentage degradation < 30%)”.

For the compound `Cc1nc(NC(=O)c2ccccc2NC(=O)CCCCCCCCNC(=O)CN2CCN(Cc3ccc(Nc4ncc(F)c(-c5cc(F)c6nc(C)n(C(C)C)c6c5)n4)nc3)CC2)sc1C` [CPD-279, N-(4,5-Dimethylthiazol-2-yl)-2-(9-(2-(4-((6-((5-fluoro-4-(4-fluoro-1-isopropyl-2-methyl-1H-benzo[d]imidazol-6-yl)pyrimidin-2-yl)amino)pyridin-3-yl)methyl)piperazin-1-yl)acetamido)nonanamido)benzamide], the inhibition at 10 µM on CDK4 is less than 30%. In the test on cyclin D1, the “CyclinD1 Degradation (10 μM)” value is listed as “D (protein percentage degradation < 30%)”.

`Cc1nc(NC(=O)c2ccccc2NC(=O)CCOCCNC(=O)CN2CCN(Cc3ccc(Nc4ncc(F)c(-c5cc(F)c6nc(C)n(C(C)C)c6c5)n4)nc3)CC2)sc1C` [CPD-280, N-(4,5-Dimethylthiazol-2-yl)-2-(3-(2-(2-(4-((6-((5-fluoro-4-(4-fluoro-1-isopropyl-2-methyl-1H-benzo[d]imidazol-6-yl)pyrimidin-2-yl)amino)pyridin-3-yl)methyl)piperazin-1-yl)acetamido)ethoxy)propanamido)benzamide]: the inhibition at 10 µM at CDK4 was less than 30%. In the test with cyclin D1, the “CyclinD1 Degradation (10 μM)” value is “D (protein percentage degradation < 30%)”.

For the compound `Cc1nc(NC(=O)c2ccccc2NC(=O)CCOCCOCCNC(=O)CN2CCN(Cc3ccc(Nc4ncc(F)c(-c5cc(F)c6nc(C)n(C(C)C)c6c5)n4)nc3)CC2)sc1C` [CPD-281, N-(4,5-Dimethylthiazol-2-yl)-2-(3-(2-(2-(2-(4-((6-((5-fluoro-4-(4-fluoro-1-isopropyl-2-methyl-1H-benzo[d]imidazol-6-yl)pyrimidin-2-yl)amino)pyridin-3-yl)methyl)piperazin-1-yl)acetamido)ethoxy)ethoxy)propanamido)benzamide], the inhibition at 10 µM at CDK4 is less than 30%. Moreover, the “CyclinD1 Degradation (10 μM)” value with cyclin D1 is recorded as “D (protein percentage degradation < 30%)”.

With `Cc1nc(NC(=O)c2ccccc2NC(=O)CCOCCOCCOCCNC(=O)CN2CCN(Cc3ccc(Nc4ncc(F)c(-c5cc(F)c6nc(C)n(C(C)C)c6c5)n4)nc3)CC2)sc1C` [CPD-282, N-(4,5-Dimethylthiazol-2-yl)-2-(1-(4-((6-((5-fluoro-4-(4-fluoro-1-isopropyl-2-methyl-1H-benzo[d]imidazol-6-yl)pyrimidin-2-yl)amino)pyridin-3-yl)methyl)piperazin-1-yl)-2-oxo-6,9,12-trioxa-3-azapentadecan-15-amido)benzamide], on CDK4, the inhibition at 10 µM was less than 30%. Also, the “CyclinD1 Degradation (10 μM)” value in the test with cyclin D1 is “D (protein percentage degradation < 30%)”.

Take `Cc1nc(NC(=O)c2ccccc2NC(=O)CCOCCOCCOCCOCCNC(=O)CN2CCN(Cc3ccc(Nc4ncc(F)c(-c5cc(F)c6nc(C)n(C(C)C)c6c5)n4)nc3)CC2)sc1C` [CPD-283, N-(4,5-Dimethylthiazol-2-yl)-2-(1-(4-((6-((5-fluoro-4-(4-fluoro-1-isopropyl-2-methyl-1H-benzo[d]imidazol-6-yl)pyrimidin-2-yl)amino)pyridin-3-yl)methyl)piperazin-1-yl)-2-oxo-6,9,12,15-tetraoxa-3-azaoctadecan-18-amido)benzamide]: the inhibition at 10 µM on CDK4 was less than 30%. Also, the “CyclinD1 Degradation (10 μM)” value in the test with cyclin D1 is listed as “D (protein percentage degradation < 30%)”.

In the case of `Cc1nc(NC(=O)c2ccccc2NC(=O)CCOCCOCCOCCOCCOCCNC(=O)CN2CCN(Cc3ccc(Nc4ncc(F)c(-c5cc(F)c6nc(C)n(C(C)C)c6c5)n4)nc3)CC2)sc1C` [CPD-284, N-(4,5-Dimethylthiazol-2-yl)-2-(1-(4-((6-((5-fluoro-4-(4-fluoro-1-isopropyl-2-methyl-1H-benzo[d]imidazol-6-yl)pyrimidin-2-yl)amino)pyridin-3-yl)methyl)piperazin-1-yl)-2-oxo-6,9,12,15,18-pentaoxa-3-azahenicosan-21-amido)benzamide], the inhibition at 10 µM on CDK4 is less than 30%. The “CyclinD1 Degradation (10 μM)” value with cyclin D1 is “D (protein percentage degradation < 30%)”.
